Read-outs that look alike come from different tables or passages of the source.
Columns and labels:
Type in all cases: cell-based, human
BxPC3 cells [1] = assay: Clonogenic survival assay, gemcitabine kill curves
Protocol: Cell culture and chemicals. Panc1, BxPC3, and CFPAC1 cells were purchased from American Type Culture Collection (ATCC) and banked in house until use. Cell lines were cultured in DMEM/10% FBS supplemented with 2 mM glutamine and 1% penicillin, streptomycin, and kanamycin (PSK) and were maintained at 37° C. in 5% CO2. Charcoal stripped (in house cell culture facility) and dialyzed FBS (Life Technologies; 509 26400-036) were used. Gemcitabine was obtained from the in house pharmacy. Rucaparib and trichostatin A were gifts.
Cell viability assays. For clonogenic assays, 1000 cells per well were seeded into 6 well plates on day 0. Cells were treated with gemcitabine at various doses on day 1 for 24 hours, Gemcitabine was washed out on day 2, and cells were allowed to grow for a subsequent 10 days before being fixed (10% methanol+10% acetic acid) and stained with crystal violet (0.4% in 20% ethanol) for colony counting and quantitation. For Rucaparib clonogenic assays, the drug was added at various doses 24 hours after cell plating, and cells were allowed to grow for a subsequent 10 days in the presence of Rucaparib. For TSA clonogenic assays, the drug was added for 4 hours prior to addition of gemcitabine or vehicle for another 18 hours before drugs were washed away, and cells were allowed to grow in drug-free medium for 10 days.

BxPC3 cells [2] = assay: Immunofluorescence of DNA damage foci (phospho-γH2AX, Rad51, 53BP1) after gemcitabine; conditions: for cells positive for Rad51 foci (>5 foci/nucleus): 18 hrs post gemcitabine
Protocol: (§1) For Immunofluorescence, cells were plated onto coverslips 24 hours pre-gemcitabine treatment. At different timepoints post gemcitabine treatment, cells were permeablized, fixed (4% paraformaldehyde) and stained. Antibodies to γH2AX (Millipore; 05-636), Rad51 (a gift), and 53BP1 were used. Alexa Fluor-conjugated (488, 555, and 647 nm) secondary antibodies (Molecular probes; A-11029, A-21428, A-21247) were used at a final concentration of 1 and nuclei counterstained with DAPI. Images were captured using a 40× or 63× high NA objective mounted on a semi-automated inverted microscope (Nikon TEi) with a charge-coupled device camera (Photometrics1394) using Nikon Elements 2.0. Exposure times for antibodies were optimized for control samples and identical exposure times used for the experimental samples. Images were quantitated and analyzed using Nikon Elements 2.0. Confocal images were taken using a Leica TCS-SP8 microscope controlled by LAS software (Leica Microsystems).
It was investigated if these repair pathways were abrogated after VDR knockdown by staining for foci formation by phospho-γH2AX, Rad51, and 53BP1, and measuring intensities after gemcitabine treatment (FIGS. 3, 4, and 5). BxPC3 (high VDR expression) and Panc1 (low VDR expression) cells were treated with gemcitabine (50 nM) for 2, 4, 8, and 18 hours, and fixed and stained for phospho-γH2AX, 53BP1, and Rad51. Foci quantitation included counting of nuclei with >5 foci and a separate measurement of the sum intensities of foci that were averaged for 5 separate immunofluorescence experiments. […] Weak but detectable phospho-γH2AX foci were visible within 4 hours of gemcitabine treatment in BxPC3 cells while it took 18 hours for foci to form in Panc1 cells (FIG. 3, A). Similarly, Rad51 foci were visible after 8 hours of gemcitabine treatment in BxPC3 cells compared to 18 hours in Panc1 cells (FIG. 3, A, FIG. 4, and FIG. 5).

Panc1 cells [3] = assay: Immunofluorescence of DNA damage foci (phospho-γH2AX, Rad51) after gemcitabine
Protocol: as §1
It was investigated if these repair pathways were abrogated after VDR knockdown by staining for foci formation by phospho-γH2AX, Rad51, and 53BP1, and measuring intensities after gemcitabine treatment (FIGS. 3, 4, and 5). BxPC3 (high VDR expression) and Panc1 (low VDR expression) cells were treated with gemcitabine (50 nM) for 2, 4, 8, and 18 hours, and fixed and stained for phospho-γH2AX, 53BP1, and Rad51. Foci quantitation included counting of nuclei with >5 foci and a separate measurement of the sum intensities of foci that were averaged for 5 separate immunofluorescence experiments.

Panc1 cells [4] = assay: Time-lapse microscopy of H2B:gfp cells; conditions: gemcitabine 50 nM
Protocol: Microscopy. For timelapse studies, Panc1 cells with stable expression of Histone H2B fused at its C-terminus to GFP were seeded into 6-well plates. 24 hours post cell plating, gemcitabine (50 nM) was added before timelapse was commenced. The plate was placed in a 37° C. chamber; bright-field and fluorescent images were taken every 5 minutes for 48 hours using a Nikon TE2000S microscope controlled by Metamorph (Molecular Devices). Three independent movies were conducted for each condition. Movies were allowed to commence for 48 hours for each independent experiment.
Time-lapse microscopy was used to track the fates of gemcitabine-treated Panc1 cells that stably expressed a H2B:gfp fusion protein that labeled chromosomes. Cells were transfected with siRNAs, treated with vehicle or gemcitabine and monitored every 10 minutes for 48 hours (FIG. 2).

[5] = BxPC3 VDRkd, 18 hours after gemcitabine
[6] = BxPC3 VDRkd, 18 hours of gemcitabine
[7] = Panc1 cells or VDR depleted BXPC3 versus BxPC3, after gemcitabine
[8] = parental BxPC3, 18 hours of gemcitabine

With `Nc1ccn([C@@H]2O[C@H](CO)[C@@H](O)C2(F)F)c(=O)n1` [gemcitabine] the “reduction in gemcitabine IC50 after depletion of VDR” value (BxPC3 cells [1]; BXPC3 cells) was about 3 fold, the IC50 (BxPC3 cells [1]; BxPC3 VDRkd cells transfected with WT-VDR, read-out: IC50 gemcitabine) was about 0.26 µM and the IC50 (BxPC3 cells [1]; Homo sapiens, BXPC-3, BxPC3, VDR siRNA, read-out: mean IC50 gemcitabine) was about 0.06 µM. The IC50 (BxPC3 cells [1]; Homo sapiens, BXPC-3, BxPC3, control shRNA, read-out: IC50 gemcitabine) was about 0.08 µM, the IC50 (BxPC3 cells [1]; Homo sapiens, BXPC-3, BxPC3, control siRNA, read-out: mean IC50 gemcitabine) was about 0.2 µM and the IC50 (BxPC3 cells [1]; Homo sapiens, BXPC-3, BxPC3, p300 shRNA, read-out: IC50 gemcitabine) was about 0.04 µM. It also gave an IC50 (BxPC3 cells [1]; Homo sapiens, BXPC-3, BxPC3 VDRkd cells transfected with WT-VDR, read-out: IC50 gemcitabine) of about 0.3 µM, an IC50 (BxPC3 cells [1]; Homo sapiens, BXPC-3, BxPC3 VDRkd cells, WT-VDR co-transfected with AML1/ETO, read-out: IC50 gemcitabine) of about 0.08 µM and an IC50 (BxPC3 cells [1]; Homo sapiens, BXPC-3, BxPC3 VDRkd cells, WT-VDR co-transfected with S237M mutant, read-out: IC50 gemcitabine) of about 0.06 µM. It also gave an IC50 (BxPC3 cells [1]; Homo sapiens, BXPC-3, BxPC3 VDRkd cells, untransfected, read-out: IC50 gemcitabine) of about 0.05 µM, an IC50 (BxPC3 cells [1]; Homo sapiens, BXPC-3, BxPC3 VDRkd cells, vector transfected, read-out: IC50 gemcitabine) of about 0.05 µM and an IC50 (BxPC3 cells [1]; Homo sapiens, BXPC-3, BxPC3 cells (highest VDR levels), read-out: mean IC50 gemcitabine) of about 0.2 µM. For the same compound, the “increase of gemcitabine IC50 over vector controls” value (BxPC3 cells [1]; wild type VDR transfected into VDR depleted BXPC3 cells) was about 6 fold, the “time until Rad51 foci detected after gemcitabine” value (BxPC3 cells [2]; BxPC3 VDRkd cells) was 18 h and the “time until phospho-γH2AX foci detected after gemcitabine” value (BxPC3 cells [2]; BxPC3 VDRkd cells) was 8 h. For the same compound, the “cells exhibiting Rad51 foci” value (BxPC3 cells [2]; BxPC3 VDRkd, 4 hrs in gemcitabine (50 nM), absence of TSA) was 11%, the “cells with diffuse phospho-γH2AX pattern” value (BxPC3 cells [2]; [5]) was 82% and the “cells with punctate phospho-γH2AX foci” value (BxPC3 cells [2]; [5]) was 18%. The “cells with clear Rad51 foci” value (BxPC3 cells [2]; [6]) was 28%, the “cells with diffuse 53BP1 pattern” value (BxPC3 cells [2]; [6]) was 69% and the “cells with diffuse Rad51 staining” value (BxPC3 cells [2]; [6]) was 72%. The “cells with punctate 53BP1 foci” value (BxPC3 cells [2]; [6]) was 31%, the “cells positive for Rad51 foci (>5 foci/nucleus)” value (BxPC3 cells [2]; BxPC3 control cells) was about 84% and the “cells positive for Rad51 foci (>5 foci/nucleus)” value (BxPC3 cells [2]; BxPC3 transfected with p300 shRNA) was about 22%. For the same compound, the “delay of Rad51 foci formation kinetics” value (BxPC3 cells [2]; [7]) was 4 h, the “delay of phospho-γH2AX foci formation kinetics” value (BxPC3 cells [2]; [7]) was 6 h and the “reduction of Rad51 foci intensity” value (BxPC3 cells [2]; [7]) was 1.5 fold. For the same compound, the “reduction of phospho-γH2AX foci intensity” value (BxPC3 cells [2]; [7]) was 2 fold, the “reduction of Rad51 focal intensity” value (BxPC3 cells [2]; p300 knockdown cells compared to control cells, gemcitabine treated) was about 35% and the “cells with punctate phospho-γH2AX foci” value (BxPC3 cells [2]; parental BxPC3, 18 hours after gemcitabine) was 94%. The “cells with clear Rad51 foci” value (BxPC3 cells [2]; [8]) was 92%, the “cells with diffuse 53BP1 pattern” value (BxPC3 cells [2]; [8]) was 10% and the “cells with diffuse Rad51 staining” value (BxPC3 cells [2]; [8]) was 8%. For the same compound, the “cells with punctate 53BP1 foci” value (BxPC3 cells [2]; [8]) was 90%, the “time until Rad51 foci visible after gemcitabine” value (BxPC3 cells [2]; parental BxPC3, gemcitabine 50 nM) was 8 h and the “cells exhibiting Rad51 foci” value (BxPC3 cells [2]; parental BxPC3, within 4 hours of gemcitabine treatment) was 92%. The “time until Rad51 foci visible after gemcitabine” value (Panc1 cells [3]; Panc1, gemcitabine 50 nM) was 18 h, the “time until phospho-γH2AX foci form after gemcitabine” value (Panc1 cells [3]; Panc1, gemcitabine 50 nM) was 18 h and the “time until phospho-γH2AX and Rad51 foci after gemcitabine addition” value (Panc1 cells [3]; Panc1 transfected with VDR siRNA) was 18 h. The “time until phospho-γH2AX and Rad51 foci after gemcitabine addition” value (Panc1 cells [3]; Panc1 transfected with control) was about 8 h, the “cell fate in 48 hour timelapse” value (Panc1 cells [4]; Panc1, Chk1 knockdown) was “enter mitosis where many died or died shortly after exit from mitosis” and the “cell fate in 48 hour timelapse” value (Panc1 cells [4]; Panc1, VDR siRNA) was “never entered mitosis, but nevertheless died”. For the same compound, the “cell fate in 48 hour timelapse” value (Panc1 cells [4]; Panc1, control siRNA) was “stopped proliferation”.

From patent publication US10449200B2, “Combined inhibition of the vitamin D receptor and poly(ADP) ribose polymerase (PARP) in the treatment of cancer” (Institute for Cancer Research, priority 2014, dated 2019)
